Patent US20070275925A1, “ASTHMA DIAGNOSIS AND THERAPY” (REGENTS OF THE UNIVERSITY OF CALIFORNIA, priority 2006, published 2007)
Entries after “also recorded” stand apart in the source; their conditions may differ.

How the values were obtained:
[1] = system: airway epithelial brushings; assay: Taqman / real-time PCR gene expression in airway epithelial brushings, fluticasone trial; assay type: in vivo, human
Protocol: (§1) Brushings yielded 1,300,000±800,000 cells of which 97±3% were epithelial. For microarray analysis, […] total epithelial RNA was amplified using NuGen Ovation RNA amplification system. Then 2.75 μg sscDNA was hybridized to Affymetrix U133 plus 2.0 arrays (>54,000 probe sets coding for 38,500 genes). Array images were analyzed using Affymetrix GeneChip Expression Analysis Software. Bioconductor^5 was used for quality control (affyPLM algorithm), preprocessing (RMA algorithm), cluster analysis, and linear modeling.^5-7 Raw array data are available from the Gene Expression Omnibus public database (http://www.ncbi.nlm.nih.gov/geo/, accession number pending). Selected microarray findings were confirmed by real-time PCR, enzyme linked immunosorbent assay (ELISA) or immunohistochemistry. In vitro studies of the effects of interleukin-13 (IL-13) on expression of selected genes were performed using primary airway epithelial cells grown at an air-liquid interface (additional detail in supplementary appendix).
In further analysis of the same dataset we have identified six genes (Table 4) which are differentially expressed in airway epithelial brushings from asthmatics asthma or altered by corticosteroid treatment of asthmatic subjects and which have not previously been implicated in asthma or in the mechanism of steroid benefit in asthma.

[2] = system: epithelial brushings; assay: Microarray gene expression in epithelial brushings, randomized placebo-controlled trial of inhaled fluticasone; assay type: in vivo, human
Protocol: In three cross sectional studies and a clinical trial, epithelial brushings were collected by bronchoscopy from 42 subjects with asthma, 16 current smokers without asthma, and 28 healthy controls. Cross-sectional studies comprised 2 visits, the first for characterization and the second for bronchoscopy. The clinical trial was a 10 week, randomized, double-blind, placebo-controlled trial specifically designed to determine the effects of inhaled fluticasone (500 μg twice daily) on airway gene expression and to relate gene expression changes to improvements in lung function (FIG. 1). Bronchoscopy was performed at baseline and repeated 1 week after starting study drug. Thirty-five subjects had adequate baseline bronchoscopy and 32 had RNA available from epithelial brushings at both bronchoscopies. Lung function was measured at intervals over the 8-week treatment period. Epithelial RNA from a subset of the subjects studied by microarray here have been used in other PCR based gene expression studies performed by our group.^4 Additional information is provided in the supplementary appendix.
as §1
For between group comparisons, t-test, rank-sum test or ANOVA followed by pair-wise analyses with Sidak correction were used as appropriate. Correlation of mRNA copy number by PCR (log transformed for normality) and lung function was performed using Pearson correlation. STATA version 9 software was used (StataCorp, College Station Tex.), and p<0.05 was taken as statistically significant. In microarray analyses, differential gene expression was assessed using linear models (controlling for age and gender). For between group comparisons, a Bonferroni corrected p-value<0.05 was used to identify differentially expressed genes. For the placebo-controlled trial, changes in gene expression from baseline to post-intervention were calculated and the mean changes in the fluticasone and placebo groups were compared. A two-fold change (either higher or lower in the fluticasone group as compared to placebo), was used to identify differentially expressed genes. Microarray analyses were performed using Bioconductor open source software^5 in the R statistical environment.
Protocol: This was a 6 visit, 10 week, randomized, double-blind, placebo-controlled trial specifically designed to determine the effects of inhaled fluticasone on airway gene expression and to relate those gene expression changes to improvements in lung function. After a one-week run-in/characterization period, subjects were randomized to receive 2 puffs BID of fluticasone propionate (250 μg/puff) or matching placebo for 8 weeks, followed by a one week run-out. Subjects were randomized in blocks designed to yield a greater number of subjects randomized to fluticasone as compared to placebo in order to maximize our ability to relate gene expression to lung function improvements within the intervention group. […]

[3] = fluticasone arm as compared to the placebo arm
[4] = one week of treatment, n = 16, greater than one indicates suppression
[5] = fluticasone group as compared to placebo group, baseline to 1 week
[6] = fluticasone group, baseline to 1 week, asthmatics

## CCC(=O)O[C@]1(C(=O)SCF)[C@H](C)C[C@H]2[C@@H]3C[C@H](F)C4=CC(=O)C=C[C@]4(C)[C@@]3(F)[C@@H](O)C[C@@]21C [fluticasone, fluticasone propionate]
[1]; [3]
  CST1 reduction by taqman: 6 fold
[1]; [4]
  FLUTICASONE Change AVERAGE, CEACAM5 (ratio of gene expression before and after treatment): 1.88
  FLUTICASONE Change AVERAGE, CST1 (ratio of gene expression before and after treatment): 5.97
  FLUTICASONE Change AVERAGE, CST4 (ratio of gene expression before and after treatment): 5.41
  FLUTICASONE Change AVERAGE, HDAC9 (ratio of gene expression before and after treatment): 2.10
  FLUTICASONE Change AVERAGE, SERPINB1 (ratio of gene expression before and after treatment): 2.31
[2]; additional gene profiling experiments
  CST1 gene expression in airway epithelial brushing from asthmatics treated with inhaled fluticasone: upregulated
[2]; [3]
  CST1 reduction by array: 2 fold
[2]; fluticasone arm as compared to the placebo arm, asthmatic airway epithelial cells
  PRR4 gene expression change with fluticasone: only modestly reduced; also recorded: no significant change
[2]; [5]
  Fold-difference Combined, 227061_at (CDNA FLJ44429 fis): 2.0 fold
  Fold-difference Combined, 228854_at (Transcribed locus): 10.5 fold
  Fold-difference Combined, 228858_at (Transcribed locus): 2.8 fold
  Fold-difference Combined, 230782_at (CDNA FLJ33419 fis): 2.2 fold
  Fold-difference Combined, 231262_at (Transcribed locus): 2.8 fold
  Fold-difference Combined, 244677_at: 2.3 fold
  Fold-difference Combined, C6: 2.2 fold
  Fold-difference Combined, C14orf78: 2.1 fold
  Fold-difference Combined, CLCA1: −2.4 fold
  Fold-difference Combined, CST1: −2.1 fold
  Fold-difference Combined, FKBP51: 4.4 fold
  Fold-difference Combined, FXYD1: 2.1 fold
  Fold-difference Combined, GAS1: 3.3 fold
  Fold-difference Combined, GPR109B: 2.4 fold
  Fold-difference Combined, HBA2: 2.7 fold
  Fold-difference Combined, HBB: 2.1 fold
  Fold-difference Combined, HIF3A: 2.7 fold
  Fold-difference Combined, KLF9: 2.4 fold
  Fold-difference Combined, LOC157381: 2.1 fold
  Fold-difference Combined, MUC13: −2.0 fold
  Fold-difference Combined, PHACTR3: 3.2 fold
  Fold-difference Combined, POSTN: −2.1 fold
  Fold-difference Combined, PPP1R16B: 2.4 fold
  Fold-difference Combined, SERPINB2: −2.9 fold
  Fold-difference Combined, TFCP2L1: 3.0 fold
  Fold-difference Combined, TSC22D3: 2.5 fold
  Fold-difference Combined, TU3A: 2.8 fold
  Fold-difference Combined, UBD: −2.1 fold
  Fold-difference Combined, UBE2H: 2.1 fold
  Fold-difference Combined, WIPI49: 2.0 fold
[2]; [6]
  Fold-difference Flovent, 227061_at (CDNA FLJ44429 fis): 1.6 fold
  Fold-difference Flovent, 228854_at (Transcribed locus): 7.3 fold
  Fold-difference Flovent, 228858_at (Transcribed locus): 2.4 fold
  Fold-difference Flovent, 230782_at (CDNA FLJ33419 fis): 2.1 fold
  Fold-difference Flovent, 231262_at (Transcribed locus): 2.4 fold
  Fold-difference Flovent, 244677_at: 1.8 fold
  Fold-difference Flovent, C6: 1.6 fold
  Fold-difference Flovent, C14orf78: 1.8 fold
  Fold-difference Flovent, CLCA1: −2.7 fold
  Fold-difference Flovent, CST1: −2.4 fold
  Fold-difference Flovent, FKBP51: 3.6 fold
  Fold-difference Flovent, FXYD1: 1.4 fold
  Fold-difference Flovent, GAS1: 2.7 fold
  Fold-difference Flovent, GPR109B: 1.9 fold
  Fold-difference Flovent, HBA2: 3.0 fold
  Fold-difference Flovent, HBB: 2.5 fold
  Fold-difference Flovent, HIF3A: 2.7 fold
  Fold-difference Flovent, KLF9: 2.2 fold
  Fold-difference Flovent, LOC157381: 1.7 fold
  Fold-difference Flovent, MUC13: −1.6 fold
  Fold-difference Flovent, PHACTR3: 3.1 fold
  Fold-difference Flovent, POSTN: −2.1 fold
  Fold-difference Flovent, PPP1R16B: 2.1 fold
  Fold-difference Flovent, SERPINB2: −2.5 fold
  Fold-difference Flovent, TFCP2L1: 3.1 fold
  Fold-difference Flovent, TSC22D3: 2.0 fold
  Fold-difference Flovent, TU3A: 2.3 fold
  Fold-difference Flovent, UBD: −2.0 fold
  Fold-difference Flovent, UBE2H: 2.0 fold
  Fold-difference Flovent, WIPI49: 1.7 fold
